Experimental data: US20150250210A1, “FLAVOUR ADDITIVES” (MARS INCORPORATED, priority 2012, published 2015)

System: T1R1/T1R3 umami receptor
Experiment: in silico modelling and in vitro screening for binding and activation of the umami receptor
Format: cell-based, cat
Details: for ability to bind to and activate the umami receptor: non-human umami receptor, in silico modelling and in vitro assays
Experimental: In vitro screening was carried out in order to establish which amino acids bind and activate the umami receptor.
In vitro screening was carried out in order to establish which nucleotides bind and activate the umami receptor.

Row | Structure (SMILES) | ability to bind to and activate the umami receptor | binding to the feline umami receptor (feline umami receptor)
1 | N[C@@H](Cc1ccc(O)cc1)C(=O)O [tyrosine] | able to bind to and activate the umami receptor to different extents | –
2 | N[C@@H](Cc1c[nH]cn1)C(=O)O [histidine] | able to bind to and activate the umami receptor to different extents | –
3 | CSCC[C@H](N)C(=O)O [methionine] | able to bind to and activate the umami receptor to different extents | –
4 | NC(=O)C[C@H](N)C(=O)O [asparagine] | able to bind to and activate the umami receptor to different extents | –
5 | N[C@@H](Cc1ccccc1)C(=O)O [phenylalanine] | able to bind to and activate the umami receptor to different extents | –
6 | NCC(=O)O [glycine] | able to bind to and activate the umami receptor to different extents | –
7 | N[C@@H](CO)C(=O)O [serine] | able to bind to and activate the umami receptor to different extents | –
8 | N[C@@H](Cc1c[nH]c2ccccc12)C(=O)O [tryptophan] | able to bind to and activate the umami receptor to different extents | –
9 | N[C@@H](CCC(=O)O)C(=O)O [glutamate] | – | does not bind
10 | C[C@H](N)C(=O)O [alanine] | able to bind to and activate the umami receptor to different extents | –
11 | N[C@@H](CS)C(=O)O [cysteine] | able to bind to and activate the umami receptor to different extents | –
12 | CC(C)C[C@H](N)C(=O)O [leucine] | able to bind to and activate the umami receptor to different extents | –
